# Laboratory results taken from patent US20250129062A1, “AMORPHOUS SUBSTANCES, CRYSTALS, PHARMACEUTICAL COMPOSITIONS, PREPARATION METHODS AND USES OF THIOHYDANTOIN COMPOUND OR PHARMACEUTICALLY ACCEPTABLE SALT THEREOF” (SUZHOU KINTOR PHARMACEUTICALS, INC., priority 2021, published 2025).
# Legend:
# [1] = High temperature stability experiment of amorphous substance (60° C.); format: physicochemical; conditions: 60° C. in the dark
# Protocol: The amorphous substance of the compound of formula I prepared in example 1 was stored at 60° C. in the dark for 30 days, and the purity percentages were detected by HPLC on day 0, day 5, day 10 and day 30, respectively.
# [2] = Long-term stability experiment of amorphous substance; format: physicochemical; conditions: for purity (HPLC): Long term
# Protocol: Referring to ICH Q1A stability testing of new drug substances and products, the amorphous substance of the compound of formula I prepared in example 1 was subjected to a long-term stability experiment (experimental condition: 25±2° C., RH 60%=5%) and an accelerated stability experiment (experimental condition: 40±2° C., RH 75%=5%). The purity of the sample at different times was detected by HPLC under condition 2 to evaluate the physicochemical stability of the amorphous substance of the compound of formula I. The results were as shown in Table 18.
# Condition 2: • Instruments: Agilent 1260; • Chromatographic column: C18 (150 mm×4.6 mm×3.5 μm); • column temperature: 45° C.; • Mobile phase: binary mobile phase system, mobile phase A was a 10 mM aqueous ammonium acetate solution (preparation method: ammonium acetate was added into purified water, and mixed evenly, and pH value was adjusted to 4.50±0.05 with acetic acid), mobile phase B was acetonitrile; • Elution mode: gradient elution, with specific procedures as shown in Table 17; • flow rate: 1.0 mL/min; • Injection volume: 5 μL; • Detection wavelength: 270 nm; • Data acquisition: OpenLab CDS2 software.
smiles,measurement,setting,value
Cc1ncsc1-c1ccc(CNC(=O)[C@@H]2C[C@@H](O)CN2C(=O)[C@@H](NC(=O)COCCCCOc2ccc(-c3ccc(N4C(=S)N(c5ccc(C#N)c(C(F)(F)F)c5F)C(=O)C4(C)C)cn3)cc2)C(C)(C)C)cc1,Purity %,[1]; 0 day,99.35%
same,Purity %,[1]; 5 days,99.34%
same,Purity %,[1]; 10 days,99.27%
same,Purity %,[1]; 30 days,99.34%
same,purity (HPLC),[2]; 3 months,99.36%
same,purity (HPLC),[2]; 6 months,99.37%
same,purity (HPLC),[2]; 9 months,99.29%
same,purity (HPLC),"[2]; 25±2° C., RH 60%=5%, 0 month",99.25%
same,stability,"[2]; long-term, accelerated and high-temperature stability experiments",excellent stability
